The text below walks through data of paper PMC3534858 (Bioorganic & medicinal chemistry letters, 2012).

A short description of series [1]: Intrinsic clearance by mouse liver microsomes. The format is in vitro ADME. Particulars: for CLHEP (predicted hepatic clearance): estimated from Clint, mouse hepatic blood flow QH 90 mL/min/kg.
The next series deals with T1, mouse TP receptor (Mus musculus, UniProt P30987).
T1 sequence (P30987 1-341): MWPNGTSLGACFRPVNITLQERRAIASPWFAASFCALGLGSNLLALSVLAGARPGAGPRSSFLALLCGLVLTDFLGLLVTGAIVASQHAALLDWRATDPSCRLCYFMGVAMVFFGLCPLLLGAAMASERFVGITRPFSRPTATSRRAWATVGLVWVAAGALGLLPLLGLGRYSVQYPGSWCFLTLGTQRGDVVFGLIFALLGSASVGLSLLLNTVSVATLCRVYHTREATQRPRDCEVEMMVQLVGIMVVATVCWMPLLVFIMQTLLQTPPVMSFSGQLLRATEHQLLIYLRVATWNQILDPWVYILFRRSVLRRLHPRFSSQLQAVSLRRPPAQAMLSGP
Kind of series: Suppression of signaling through mouse TP receptor. The format is cell-based.

Series [2] can be described thus: Metabolite identification in hepatic subcellular fractions. The following applies: NADPH-independent hydrolysis and NADPH-dependent oxidation. The format is in vitro ADME.
The target of the next series is T2, mouse EP1 receptor (Mus musculus, UniProt P35375).
T2 sequence (P35375 1-405): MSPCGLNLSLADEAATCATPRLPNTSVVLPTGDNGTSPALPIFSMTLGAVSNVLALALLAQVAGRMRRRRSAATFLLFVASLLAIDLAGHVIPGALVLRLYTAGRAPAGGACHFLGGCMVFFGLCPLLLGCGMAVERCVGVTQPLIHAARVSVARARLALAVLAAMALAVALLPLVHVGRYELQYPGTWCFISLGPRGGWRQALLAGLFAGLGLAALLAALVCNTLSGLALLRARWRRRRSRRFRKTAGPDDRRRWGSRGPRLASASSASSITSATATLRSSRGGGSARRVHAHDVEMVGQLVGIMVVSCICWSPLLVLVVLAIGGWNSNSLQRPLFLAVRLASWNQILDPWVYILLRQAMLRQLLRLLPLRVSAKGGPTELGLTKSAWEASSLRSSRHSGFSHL
Particulars: for Schild regression slope m: representative experiment, six antagonist concentrations, agonist 17PTPGE2.

The conditions of series [3]: several species; cited from earlier work.
Another series concerns human EP1 receptor. The following applies: cited from earlier work.
Series [4] relates to human thromboxane (TP) receptor. Particulars: cited from earlier work.
Series [5] is described as follows: In vivo pharmacokinetics of 7 in mice. The following applies: mouse, plasma, iv, 1 mg/kg.
Series [6] has as its system phenylephrine vasoconstriction. Kind of series: Phenylephrine pressor response control in anesthetized mice. Type of series: in vivo, mouse. The following applies: phenylephrine 10 μg/kg; data not shown.

For `CC(C)CNC(=O)c1cccc(Cc2cc(Cl)ccc2OCc2ccc(Cl)cc2F)n1` [Compound 11], the “CLHEP (predicted hepatic clearance)” value in series [1] is on record as 89.2 mL/min/kg. In [1] (mouse, liver microsomes), this compound yielded a CLint scaled of 9810 mL/min/kg. Besides, on mouse TP receptor, the IC50 is > 1000 nM. Also, the “Biotransformation in metabolite identification studies” value in series [2] was “extensive biotransformation”.
As to `CC(C)(C)NC(=O)c1cccc(Cc2cc(Cl)ccc2OCc2ccc(Cl)cc2F)n1` [Compound 13], the IC50 against mouse TP receptor is > 1000 nM.
For the compound `O=C(O)c1cccc(Cc2cc(Cl)ccc2OCc2ccc(Cl)cc2F)n1` [Compound 7, reference compound], at mouse EP1 receptor, binding was put at a Kd of 52.1 nM and the “Schild regression slope m” value was found to be 0.953 ± 0.085. Besides, the “Functional antagonism of mEP1 in vitro” value on mouse EP1 receptor (Schild analysis) is “functional antagonist of mEP1”. Besides, the “CLHEP (predicted hepatic clearance)” value in series [1] is reported as 43.6 mL/min/kg. The same compound had a CLint scaled in series [1] (mouse, liver microsomes) of 84.7 mL/min/kg. Besides, half-maximal inhibition at mouse TP receptor (IC50) was put at 912 nM. At mouse TP receptor (mouse TP vs human TP), the “Concentration suppressing mouse TP signaling relative to human receptor” value stood at 100 fold. Further, the “Stability in microsomes and S9 fractions” value in series [3] is “stable”. Besides, the “Affinity for the human EP1 receptor” value with human EP1 receptor is “good affinity”. In series [4], the “Interaction with the human thromboxane (TP) receptor” value was “high-affinity interaction”. In addition, the half-life in series [5] is > 1 h.
Take `CCC(C)NC(=O)c1cccc(Cc2cc(Cl)ccc2OCc2ccc(Cl)cc2F)n1` (centres unmarked) [Compound 12]: the IC50 against mouse TP receptor is > 1000 nM.
For the compound `O=C(NS(=O)(=O)c1cc(Cl)ccc1Cl)c1cccc(Cc2cc(Cl)ccc2OCc2ccc(Cl)cc2F)n1` [Compound 18], the IC50 on mouse TP receptor is > 1000 nM.
As to `O=C(c1cccc(Cc2cc(Cl)ccc2OCc2ccc(Cl)cc2F)n1)N1CCCC1` [Compound 9], at mouse EP1 receptor (Schild analysis, mean ± SEM of at least two independent experiments in duplicate), the “mEP1 pKD” value is reported as 4.80 ± 0.05. Also, the IC50 against mouse TP receptor was > 1000 nM.
With `O=C(NC1CC2CCC1C2)c1cccc(Cc2cc(Cl)ccc2OCc2ccc(Cl)cc2F)n1` (centres unmarked) [Compound 15], the concentration for half-maximal inhibition (IC50) against mouse TP receptor is > 1000 nM.
For the compound `O=C(NS(=O)(=O)c1ccc(Cl)cc1)c1cccc(Cc2cc(Cl)ccc2OCc2ccc(Cl)cc2F)n1` [Compound 17], at mouse EP1 receptor, binding was characterised by a dissociation constant (Kd) of 86.5 nM and the “Schild regression slope m” value was determined as 1.20 ± 0.12. For the same compound, the “CLHEP (predicted hepatic clearance)” value in series [1] is 86.6 mL/min/kg. Besides, in [1] (mouse, liver microsomes), the CLint scaled was 2260 mL/min/kg and the “Clint (intrinsic clearance)” value is recorded as “less stable in mouse hepatic microsomes than 7”. The IC50 against mouse TP receptor was > 1000 nM. In series [6], the “Effect of pretreatment on phenylephrine pressor activity” value is “unaffected”. In series [2], the “Biotransformation in metabolite identification studies” value is “extensive biotransformation”.
Regarding `O=C(NS(=O)(=O)c1ccc(Cl)c(Cl)c1)c1cccc(Cc2cc(Cl)ccc2OCc2ccc(Cl)cc2F)n1` [Compound 21], the “CLHEP (predicted hepatic clearance)” value in series [1] is 87.4 mL/min/kg. The CLint scaled in [1] (mouse, liver microsomes) is 2990 mL/min/kg. Further, the IC50 on mouse TP receptor was > 1000 nM.
Consider `CCN(CC)C(=O)c1cccc(Cc2cc(Cl)ccc2OCc2ccc(Cl)cc2F)n1` [Compound 14], for which the “CLHEP (predicted hepatic clearance)” value in series [1] is recorded as 88.9 mL/min/kg. In series [1] (mouse, liver microsomes), this compound yielded a CLint scaled of 7160 mL/min/kg. Further, at mouse TP receptor, the IC50 is > 1000 nM.
Consider `CCCS(=O)(=O)NC(=O)c1cccc(Cc2cc(Cl)ccc2OCc2ccc(Cl)cc2F)n1` [Compound 20], for which the IC50 against mouse TP receptor was > 1000 nM.
Take `Cc1ccc(S(=O)(=O)NC(=O)c2cccc(Cc3cc(Cl)ccc3OCc3ccc(Cl)cc3F)n2)cc1` [Compound 19]: the “CLHEP (predicted hepatic clearance)” value in [1] is recorded as 88.4 mL/min/kg. Also, in [1] (mouse, liver microsomes), the CLint scaled was found to be 5040 mL/min/kg. Besides, the IC50 against mouse TP receptor was > 1000 nM.
For `O=C(NCC1CC1)c1cccc(Cc2cc(Cl)ccc2OCc2ccc(Cl)cc2F)n1` [Compound 8] the same measures were 89.3 mL/min/kg, 11400 mL/min/kg and > 1000 nM.
For the compound `O=C(NC1CCC1)c1cccc(Cc2cc(Cl)ccc2OCc2ccc(Cl)cc2F)n1` [Compound 10], the IC50 against mouse TP receptor was > 1000 nM.
Same read-out and setting: with `NC(=O)c1cccc(Cc2cc(Cl)ccc2OCc2ccc(Cl)cc2F)n1` [Compound 16] the figure was > 1000 nM.

What is called CLint scaled is the rate of metabolic loss divided by the concentration. By IC50 is commonly meant the concentration that inhibits the measured activity by half. Read a low IC50 as inhibition by little substance. As usually defined, the Kd is the free concentration of one partner at which half of the binding sites on the other are occupied at equilibrium, for simple one-to-one binding. In general, half-life refers to the time needed for the level to fall by half in the phase considered.
